These results are taken from patent US20120214684A1, “COMPOSITIONS AND METHODS FOR DETECTING AND TREATING PROSTATE CARCINOMA” (UNIVERSITY OF FLORIDA RESEARCH FOUNDATION, priority 2009, published 2012).

The test system of assay [1] is Sox2, Oct3/4, Nanog. Put plainly: Western blot of stem cell markers after Docetaxel treatment. The assay is classed as cell-based, human. The following applies: 1 nM, 2 nM, 5 nM, 10 nM docetaxel. The procedure: (§1) FIG. 12B is a graph depicting the cell viability of prostate cancer stem cells (CSC) and non-stem prostate cancer cells (Non-CSC) observed for up to 72 hours after treatment with Docetaxel. Cell viability was determined by quantifying the surviving prostate cancer stem cells (CSC) and non-stem prostate cancer cells (Non-CSC) in the samples exposed to 5 nM Docetaxel at Day 0, 1, 2 and 3.
(§2) Prostate cancer stem cells from metastatic prostate cancer cell lines were examined for their sensitivity to conventional cancer treatments (e.g., radiation and chemotherapy). […] Metastatic prostate stem cell lines were also treated with Docetaxel, a frontline treatment for drug-resistant cancer cells.
For the experiments described above, Western-blot analysis was performed by standard methods on isolated cancer stem cells and non-cancer stem cells. Whole cell lysates were prepared in lysis buffer with a commercially available protease inhibitor cocktail (Pierce) at 4° C., followed by centrifugation at 13,000×g for 10 min. Extracts were separated by SDS/PAGE and transferred to nitrocellulose membranes. The membranes were blocked with 5% nonfat dry milk in 20 mM Tris-HCl (pH 7.5), 500 mM sodium chloride, and 0.05% Tween 20 for 2 h and then incubated with commercially available primary antibodies in the same buffer with 1% BSA (fraction V). […]
For orientation: A western blot detects proteins with antibodies after separation by electrophoresis.

Assay [2] has as its system prostate cancer stem cells (CSC) and non-stem prostate cancer cells (Non-CSC). Put plainly: Cell viability of CSC and Non-CSC after Docetaxel. The assay is classed as cell-based, human. The following applies: 5 nM Docetaxel, Day 0, 1, 2 and 3. The procedure: as §1, §2

As for `CC(=O)O[C@@]12CO[C@@H]1C[C@H](O)[C@@]1(C)C(=O)[C@H](O)C3=C(C)[C@@H](OC(=O)[C@H](O)[C@@H](NC(=O)OC(C)(C)C)c4ccccc4)C[C@@](O)([C@@H](OC(=O)c4ccccc4)[C@H]21)C3(C)C` [Docetaxel], the “detection of Sox2, Oct 3/4 and Nanog expression” value in assay [1] is “increased detection of Sox2, Oct 3/4 and Nanog expression with increasing dose”. The “cell viability of prostate cancer stem cells vs non-stem prostate cancer cells” value in assay [2] is on record as “more cell viability compared to non-stem prostate cancer cells”.
